Here are results for two compounds from US12370352B2, “Nasal and ophthalmic delivery of aqueous corticosteroid solutions” (CyDex Pharmaceuticals, Inc., priority 2007, dated 2025).

For data set [1] the following is noted: 72 h.
Data set [2] in a line: pH and temperature stability of azelastine with and without CAPTISOL (Example 16). It is filed as physicochemical. The note with it: sixteen weeks, 25, 40, 60° C., pH 4, 5, 6. The source says:
SAE-CD is also capable of stabilizing a second active agent included in the composition. Example 16 details a procedure for evaluating the stability of azelastine in the presence of SAE-CD at varying temperatures and in solutions of different pH's. The results are depicted in FIGS. 10A to 10C. The SAE-CD stabilized the azelastine for the period of sixteen weeks regardless of the temperature or pH of the solution. The lower the temperature, the greater the stabilization.
The pH and temperature stability of an aqueous liquid composition comprising SAE-CD, azelastine, and buffer were determined as follows.
Stock citrate solutions (sodium citrate (3 mM) and citric acid solution (3 mM); 500 mL each) were prepared. The citrate solutions were combined and titrated to prepare stock buffered solutions (at least 150 mL each) having a pH of 4, 5, or 6. A stock solution of azelastine hydrochloride (5 mg/mL) in water was prepared. Assay solutions comprising CAPTISOL, azelastine and buffer were prepared by mixing CAPTISOL (1.4 g) and stock solution of azelastine (7.5 mL) in stock buffered solution (QS to final volume of 75 mL for each different pH). Assay solutions comprising azelastine and buffer were prepared by mixing stock solution of azelastine (7.5 mL) and stock buffered solution (67.5 mL, or QS to final volume of 75 mL). […]

Data set [3] is classed as binding. An excerpt:
(§1) The equilibrium binding constant of the corticosteroid can change when a second active agent is present in a composition of the invention. Since azelastine hydrochloride (AZ-HCl) has an approximately 10-fold higher binding constant for SBE-β-CD than does budesonide (BUD), the amount of SBE-β-CD present in an aqueous composition of the three needs to be sufficient to solubilize both drugs. Example 19 details a procedure for determination of the phase solubility of budesonide in the presence of varying amounts of azelastine. The results are depicted in FIGS. 11A (for SBE-β-CD) and 11B (for SBE-β-CD and SBE-γ-CD). […] FIG. 11B is a chart of the phase solubility of BUD as a function of SBE-β-CD or SBE-γ-CD concentration in solution using various different concentrations of AZ-HCl (1.00-2.75 mg.mL). […] Thus, increasing the amount of AZ-HCl in the solution decreases the overall solubility of BUD. […] Therefore, it is advantageous to prepare solution compositions of these combinations using SBE-γ-CD due to the efficiency of interaction so as to require less of one SAExCD versus another different SAEyCD to solubilize similar amounts of actives in the presence of each other.

Data set [4] is classed as binding. On the procedure:
A composition of the invention can comprise SAE-CD, corticosteroid, aqueous liquid carrier, and an antihistamine. In some embodiments, the composition contains SAE-CD, budesonide, water (or aqueous buffer) and azelastine. Example 14 details the preparation of such a composition. Other solutions of azelastine in buffer with varying amounts of SAE-CD, in the absence of budesonide, were prepared and scanned by UV Spectrometer. The change in absorption as a function of SAE-CD concentration was plotted and used to determine the equilibrium binding constant of azelastine with SAE-CD, according to the Benesi-Hildebrand equation. […] The binding constant for budesonide under similar conditions was determined to be about 1000; therefore, azelastine will compete with budesonide, or another corticosteroid, for binding to SAE-CD. Accordingly, the amount of SAE-CD present can be increased to permit complete dissolution of both drugs.
as §1
This is another data set of the same source.

Regarding `C[C@@H]1C[C@H]2[C@@H]3CCC4=CC(=O)C=C[C@]4(C)[C@@]3(Cl)[C@@H](O)C[C@]2(C)[C@@]1(O)C(=O)CCl` [Mometasone, mometasone], the “Steroid solubility (intrinsic)” value in data set [1] worked out at 0 µM.
As to `CN1CCCC(n2nc(Cc3ccc(Cl)cc3)c3ccccc3c2=O)CC1` (stereo not drawn) [azelastine, 4-[(4-chlorophenyl)methyl]-2-(1-methylazepan-4-yl)-phthalazin-1-one], the “Stability in the presence of SAE-CD” value in data set [2] is given as “stabilized”. Besides, the “Equilibrium complex stability constant with SBE-γ-CD” value in data set [3] was 2200 M⁻¹. Moreover, in data set [4], the “Equilibrium complex stability constant with SBE-β-CD” value is about 10000 M⁻¹ and the “Equilibrium complex stability constant with SBE-β-CD relative to SBE-γ-CD” value is given as “about 5 times”. Moreover, the “Equilibrium binding constant with CAPTISOL” value in data set [4] (pH 4.5) is on record as “approximately 10,000”.
